What was measured:
Conditions in all cases: 72 h
Caco-2 [1] = test: drug sensitivity score (DSS) for viability; higher = more toxic; extreme values may be limits of the assay
Calu-3 [2] = test: as above
Vero E6 [3] = test: as above
HepG2 [4] = test: as above
U2OS [5] = test: as above
Caco-2 [6] = test: cell viability relative to DMSO; higher = less toxic
Calu-3 [7] = test: as above
Vero E6 [8] = test: as above
HepG2 [9] = test: as above
U2OS [10] = test: as above
Caco-2 [11] = test: relative viability EC50 (midpoint between 100% and the lowest measured viability); higher = less toxic
Calu-3 [12] = test: as above
Vero E6 [13] = test: as above
HepG2 [14] = test: as above
U2OS [15] = test: as above

Structure (SMILES)	drug sensitivity score (Caco-2 [1])	drug sensitivity score (Calu-3 [2])	drug sensitivity score (Vero E6 [3])	drug sensitivity score (HepG2 [4])	drug sensitivity score (U2OS [5])	cell viability (Caco-2 [6]; 1 nM) [%]	cell viability (Caco-2 [6]; 10 nM) [%]	cell viability (Caco-2 [6]; 100 nM) [%]	cell viability (Caco-2 [6]; 1000 nM) [%]	cell viability (Caco-2 [6]; 10000 nM) [%]	cell viability (Calu-3 [7]; 1 nM) [%]	cell viability (Calu-3 [7]; 10 nM) [%]	cell viability (Calu-3 [7]; 100 nM) [%]	cell viability (Calu-3 [7]; 1000 nM) [%]	cell viability (Calu-3 [7]; 10000 nM) [%]	cell viability (Vero E6 [8]; 1 nM) [%]	cell viability (Vero E6 [8]; 10 nM) [%]	cell viability (Vero E6 [8]; 100 nM) [%]	cell viability (Vero E6 [8]; 1000 nM) [%]	cell viability (Vero E6 [8]; 10000 nM) [%]	cell viability (HepG2 [9]; 1 nM) [%]	cell viability (HepG2 [9]; 10 nM) [%]	cell viability (HepG2 [9]; 100 nM) [%]	cell viability (HepG2 [9]; 1000 nM) [%]	cell viability (HepG2 [9]; 10000 nM) [%]	cell viability (U2OS [10]; 1 nM) [%]	cell viability (U2OS [10]; 10 nM) [%]	cell viability (U2OS [10]; 100 nM) [%]	cell viability (U2OS [10]; 1000 nM) [%]	cell viability (U2OS [10]; 10000 nM) [%]	relative viability EC50 (Caco-2 [11]) [µM]	relative viability EC50 (Calu-3 [12]) [µM]	relative viability EC50 (Vero E6 [13]) [µM]	relative viability EC50 (HepG2 [14]) [µM]	relative viability EC50 (U2OS [15]) [µM]
C[C@H]1COc2c(C3(N)CC3)c(F)cc3c(=O)c(C(=O)O)cn1c23 [pazufloxacin]	0	0	0	0	0	103	93.5	90.3	99.2	102	96.9	98.7	90.6	101	89.3	93.7	103	103	94.6	99.2	88.8	107	101	98.9	99.4	103	103	100	99.9	97.3	> 10	> 10	> 10	> 10	> 10
CC1(C)OC[C@@H](COC(=O)CCc2ccc(OC[C@@H](O)CNCCNC(=O)N3CCOCC3)cc2)O1 [landiolol]	0	0	0	0	0	111	103	98.2	108	107	105	97.7	97.2	104	101	96.2	97.4	93.4	94.6	96.6	81.9	106	104	86.3	96.8	98.4	99.2	96.9	101	97.1	> 10	> 10	> 10	> 10	> 10
COC(=O)/C=C/C(=O)N[C@@H]1CC[C@@]2(O)[C@H]3Cc4ccc(O)c5c4[C@@]2(CCN3CC2CC2)[C@H]1O5 [beta-funaltrexamine]	0.7	0	0	0	0	104	91.5	90	94.8	82.4	95.2	99.5	101	102	99.6	92.4	96.1	93.1	105	101	93.6	92.8	92.4	90.6	89.2	104	98.7	101	96.3	89.9	> 10	> 10	> 10	> 10	> 10

Reference: the supplement of paper PMC13380429
